Assays:
[1] = tested on: GSK-3β−/− cells; test: Cell death / viability (trypan blue) of GSK-3β-/- embryonic fibroblast cell lines; type: cell-based, mouse; details: anisomycin 0-5 μg/ml, sorbitol 0-1000 mM, daunorubicin 0-1000 ng/ml
From the text: To probe the mechanism by which GSK-3β impacted TNF cytotoxicity, immortalized mouse embryonic fibroblast (MEF) cell lines from two wild-type ([…]), two GSK-3β heterozygous (+/−1 and +/−2) and two GSK-3β homozygous mutant (−/−1 and −/−2) embryos were derived from embryos.
We next examined the sensitivity of the lines to TNF-induced cell death. […] As a reference, TNF receptor-associated factor 2 (TRAF2) homozygous mutant MEFs were used in the same assay.
Viability is expressed normalized to untreated controls. Independently derived GSK-3β^+/+ EF cell clones are indicated by +/+1 and +/+2; GSK-3β^+/− by +/−1 and +/−2; and GSK-3β^−/− by −/−1, and −/−2. […] Cells were uniformly treated with cycloheximide (CHX, 0.25 μg/ml). […] (C) Sensitivity of GSK-3β^−/− EF cells to various apoptotic stimuli. EF cells were stimulated with anisomycin (0-5 μg/ml), sorbitol (0-1000 mM), daunorubicin (0-1000 ng/ml), and γ-irradiation (0-50 Gy). All experiments were repeated at least three times, and the data (as a percentage) is shown as the mean ± standard error.

[2] = tested on: GSK-3; details: cited from earlier work
[3] = target: GSK-3α (Homo sapiens, UniProt P49840); details: significant effects at concentrations of VPA similar to those attained clinically; cited from earlier work
Chain of GSK-3α (P49840 whole entry, species assumed): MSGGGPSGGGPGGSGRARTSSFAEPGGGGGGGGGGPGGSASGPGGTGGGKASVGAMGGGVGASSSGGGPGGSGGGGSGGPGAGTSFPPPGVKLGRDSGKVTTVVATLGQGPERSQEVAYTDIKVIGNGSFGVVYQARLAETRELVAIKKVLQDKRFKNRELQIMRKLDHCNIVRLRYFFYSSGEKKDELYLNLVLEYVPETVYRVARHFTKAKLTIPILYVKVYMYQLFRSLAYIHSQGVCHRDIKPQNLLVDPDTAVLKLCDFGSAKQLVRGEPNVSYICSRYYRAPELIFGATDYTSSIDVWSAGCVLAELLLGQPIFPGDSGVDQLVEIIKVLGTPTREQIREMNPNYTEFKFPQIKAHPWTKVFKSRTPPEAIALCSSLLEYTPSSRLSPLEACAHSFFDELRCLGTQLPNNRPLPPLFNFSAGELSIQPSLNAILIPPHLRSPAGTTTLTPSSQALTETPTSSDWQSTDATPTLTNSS

[4] = target: GSK-3β (Homo sapiens, UniProt P49841); details: significant effects at concentrations of VPA similar to those attained clinically; cited from earlier work
Chain of GSK-3β (P49841 whole entry): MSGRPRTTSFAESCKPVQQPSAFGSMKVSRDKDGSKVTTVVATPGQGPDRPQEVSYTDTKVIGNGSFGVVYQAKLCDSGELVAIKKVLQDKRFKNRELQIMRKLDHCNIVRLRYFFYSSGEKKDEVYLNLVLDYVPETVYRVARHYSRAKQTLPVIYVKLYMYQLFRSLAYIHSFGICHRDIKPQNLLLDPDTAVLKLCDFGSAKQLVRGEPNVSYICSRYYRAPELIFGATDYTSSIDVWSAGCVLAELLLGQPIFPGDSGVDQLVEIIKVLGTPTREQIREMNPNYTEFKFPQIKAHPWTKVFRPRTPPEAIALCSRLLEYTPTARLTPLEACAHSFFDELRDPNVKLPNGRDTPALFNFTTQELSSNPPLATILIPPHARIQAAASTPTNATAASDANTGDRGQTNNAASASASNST

| Molecule | susceptibility of GSK-3β-deficient cells to apoptotic stimuli [1] | decrease of GSK-3 activity [2] | also measured |
| --- | --- | --- | --- |
| COc1ccc(C[C@H]2NC[C@H](O)[C@H]2OC(C)=O)cc1 [anisomycin] | normal susceptibility | – | – |
| insulin | – | approximately 50% | – |
| CCCC(CCC)C(=O)O [VPA, Valproic acid] | – | – | inhibition of GSK-3α [3]: inhibits; inhibition of GSK-3β [4]: inhibits |
| OC[C@@H](O)[C@@H](O)[C@H](O)[C@@H](O)CO [sorbitol] | normal susceptibility | – | – |
| CC(C)NCC(O)c1ccc(O)c(O)c1 (stereo not shown) [Isoproterenol] | – | approximately 50% | – |
| COc1cccc2c1C(=O)c1c(O)c3c(c(O)c1C2=O)C[C@@](O)(C(C)=O)C[C@@H]3O[C@H]1C[C@H](N)[C@H](O)[C@H](C)O1 [daunorubicin] | normal susceptibility | – | – |

— US20010053351A1, “Inhibition of GSK-3 beta” (priority 1999, published 2001)
